# Data: patent EP4818154A1, “EP4 AGONIST” (ONO Pharmaceutical Co., Ltd., priority 2023, dated 2025)
# Tests used:
# DSS colitis mouse model = test: Dextran sodium sulfate (DSS)-induced ulcerative colitis mouse model; format: in vivo, C57BL/6 mice; details: oral once a day Day 0 to Day 6, 2% DSS drinking water
# Protocol: Adult C57BL/6 mice were used in this assay. The day on which 2% DSS drinking water started was defined as Day 0. A DSS solution was placed in a transparent plastic water bottle, and the mice were allowed to freely drink from Day 0 to Day 7 via a metal nozzle to induce ulcerative colitis. The test substance was orally administered once a day at a dose of 10 mL/kg for 7 days from Day 0 to Day 6. Stool conditions were observed every day from Day 0 to Day 7, and a disease activity index (DAI) was evaluated according to a reference score (Diarrhea score 0: normal stool, 1: loose stool, 2: diarrhea stool, 3: watery stool. Bloody stool score 0: normal stool, 1: brown mild bloody stool, 2: reddish color in stool, 3: melena); DAI score = diarrhea score + bloody stool score […].
# The compounds of the present disclosure were tested in this assay. Efficacy in this model is evidenced by a decrease in the DAI score when compared to that of vehicle-treated animals (control group).
# [1] = test system: monkey circulatory organ (blood pressure and heart rate); test: Monkey po telemetry test (blood pressure and heart rate); details: for safety margin (dose basis): monkey no observed effect level compared with the effective amount in the mouse model of DSS-induced colitis; for no observed effect level on the monkey circulatory organ (blood pressure and heart rate): single oral administration, unrestrained, awake cynomolgus monkeys
# Protocol: Regarding an action on the monkey circulatory organ under unrestrained conditions and awakening, the test substance was orally administered once to male cynomolgus monkeys (2 animals/dose) implanted with a telemetry transmitter (M11, Data Sciences International, Inc.), and blood pressure (systolic, diastolic, and mean blood pressure) and heart rate were continuously measured. The evaluation time point was set to before administration, 0.5, 1, 2, 4, 8, 10, 12, 16, or 24 hours after administration, and the average value for 1 minute at the evaluation time point was analyzed.
# [2] = test system: rat circulatory organ (blood pressure and heart rate); test: Rat po circulatory organ evaluation test (blood pressure and heart rate); details: for safety margin (dose basis): rat no observed effect level compared with the effective amount in the mouse model of DSS-induced colitis; for no observed effect level on the rat circulatory organ (blood pressure and heart rate): single oral administration, unrestrained, awake rats
# Source text: Regarding an action on the rat circulatory organ under unrestrained conditions and awakening, the test substance was orally administered once to Crl:CD (SD) male rats (4 animals/group) implanted with a telemetry transmitter (HD-S10, Data Sciences International, Inc.) or catheterized in the left carotid artery, and blood pressure (systolic, diastolic, and mean blood pressure) and heart rate were continuously measured.
Compound,suppression of the control group score (DAI score) (DSS colitis mouse model; 0.3 mpk) [%],safety margin (dose basis) [1] [times],no observed effect level on the monkey circulatory organ (blood pressure and heart rate) [1] [mg/kg],safety margin (dose basis) [2] [times],no observed effect level on the rat circulatory organ (blood pressure and heart rate) [2] [mg/kg],suppression of the control group score (DAI score) (DSS colitis mouse model; 3 mpk) [%],suppression of the control group score (DAI score) (DSS colitis mouse model; 1 mpk) [%]
"CN(CCCCC[C@H](O)/C=C/[C@H]1CCC(=O)N1CCSc1nc(C(=O)NCCS(=O)(=O)O)cs1)c1ccccc1 [2-({[2-({2-[(2R)-2-{(1E,3S)-3-Hydroxy-8-[methyl(phenyl)amino]-1-octen-1-yl}-5-oxo-1-pyrrolidinyl]ethyl}thio)-1,3-thiazol-4-yl]carbonyl}amino)ethanesulfonic acid]",50,10,3,100,30,,
"O=C(CCCSCCN1C(=O)CC[C@@H]1/C=C/[C@@H](O)Cc1cccc(NC(=O)c2ccccc2)c1)NCCS(=O)(=O)O [2-{[4-({2-[(2R)-2-{(1E,3S)-4-[3-(Benzoylamino)phenyl]-3-hydroxy-1-buten-1-yl}-5-oxo-1-pyrrolidinyl]ethyl}thio)butanoyl]amino}ethanesulfonic acid]",,,,10,30,50,
COc1nccnc1SCCCCC[C@H](O)/C=C/[C@H]1CCC(=O)N1CCSc1nc(C(=O)NCCS(=O)(=O)O)cs1 [Example 12],,10,30,10,30,50,
"CN(CCCCC[C@H](O)/C=C/[C@H]1CCC(=O)N1CCSc1nc(C(=O)O)cs1)c1ccccc1 [Example 2, 2-({2-[(2R)-2-{(1E,3S)-3-Hydroxy-8-[methyl(phenyl)amino]-1-octen-1-yl}-5-oxo-1-pyrrolidinyl]ethyl}thio)-1,3-thiazole-4-carboxylic acid]",50,,,,,,
"O=C(NCCS(=O)(=O)O)c1csc(SCCN2C(=O)CC[C@@H]2/C=C/[C@@H](O)CCCCCSc2ccccn2)n1 [Example 11, 2-[({2-[(2-{(2R)-2-[(1E,3S)-3-Hydroxy-8-(2-pyridinylthio)-1-octen-1-yl]-5-oxo-1-pyrrolidinyl}ethyl)thio]-1,3-thiazol-4-yl}carbonyl)amino]ethanesulfonic acid]",50,1,0.3,100,30,,
"O=C(O)c1csc(SCCN2C(=O)CC[C@@H]2/C=C/[C@@H](O)CCCCCSc2ccccn2)n1 [Example 1, 2-[(2-{(2R)-2-[(1E,3S)-3-Hydroxy-8-(2-pyridinylthio)-1-octen-1-yl]-5-oxo-1-pyrrolidinyl}ethyl)thio]-1,3-thiazole-4-carboxylic acid]",50,,,,,,
"O=C(O)CCCSCCN1C(=O)CC[C@@H]1/C=C/[C@@H](O)Cc1cccc(NC(=O)c2ccccc2)c1 [Example 10, 4-({2-[(2R)-2-{(1E,3S)-4-[3-(Benzoylamino)phenyl]-3-hydroxy-1-buten-1-yl}-5-oxo-1-pyrrolidinyl]ethyl}thio)butanoic acid]",,,,,,,50
